US8778966B2, “Quinolinone derivatives as PARP and tank inhibitors” (Janssen Pharmaceutica, NV, priority 2007, dated 2014)

How the values were obtained:
HCT116 cells [1] = test: Antiproliferative activity, Alamar Blue assay, HCT116 cells; format: cell-based, human; parameters: key to HCT116 antiproliferative activity pIC50: pIC50 = -log IC50 (IC50: conc. reducing growth to 50% of control); details: for IC50: Homo sapiens, HCT-116, HCT116 cells, read-out: HCT116 antiproliferative activity pIC50 (converted)
Protocol: Human colon carcinoma HCT116 cells obtained from the ATCC were cultured in McCoy's 5 A medium supplemented with 2 mM L-Glutamine, 50 μg/ml gentamicin and 10% heat inactivated fetal calf serum.
Resazurin was purchased from Aldrich (Prod. No. 199303). Potassium ferrocyanide, potassium ferricyanide, KH2PO4 and K2HPO4 were purchased from Sigma (Prod. Nos. P9387, P8131, P5655 and P8281, respectively).
Potassium Phosphate Buffer 0.1 M (PPB) was made as follows: 2.72 gram KH2PO4 and 13.86 gram K2HPO4 were dissolved in 500 ml milli-Q H2O, the pH was adjusted to pH 7.4 and the volume was brought to 1 litre with milli-Q H2O; the buffer was filter sterilised and stored at room temperature. Resazurin stock solution (PPB-A) was prepared fresh by dissolving 45 mg resazurin in 15 ml PBS. 30 mM potassium ferricyanide (PPB-B) was prepared by dissolving 0.987 gram potassium ferricyanide in 100 ml PPB. 30 mM potassium ferrocyanide (PPB-C) was prepared by dissolving 1.266 gram potassium ferrocyanide in 100 ml PPB.
Mixture of PPB-A, PPB-B and PPB-C was prepared by mixing equal volumes of the respective solutions. Resazurin work solution (herein termed “Alamar Blue” solution) was prepared by diluting said mixture 20×(vol/vol) in PPB and filter sterilising; the Alamar Blue solution could be kept at 4° C. for a maximum of 2 weeks.
For experiments in 384 wells plates the cells were seeded at a density of 4.5×10^3 cells/ml in Falcon 384-well culture plates (Life Technologies, Merelbeke, Belgium), black with clear bottom, in 45 μl culture medium. Cells were allowed to adhere to plastic for 24 hr. The tested compound was pre-diluted (1/50 in culture medium) and 5 μl pre-diluted compound was added to the wells. Following 4-day incubation, 10 μl of the Alamar Blue solution was added to each well and the cells were further incubated for 4 hrs (HCT116) or 24 hrs (PC-3) at 37° C. The fluorescence intensity was measured for each well on a Fluorescence plate reader (Fluorskan, Labsystems, 540 nm excitation and 590 nm emission)
The antiproliferative activity was calculated as percentage of remaining viable cells in treated versus control (untreated cells) conditions. Within an experiment, the result for each experimental condition is the mean of 3 replicate wells. When appropriate, the experiments were repeated to establish full concentration-response curves. When appropriate, IC50-values (concentration of the drug, needed to reduce cell growth to 50% of the control) were computed using probit analysis for graded data (Finney, D. J., Probit Analyses, 2nd Ed. Chapter 10, Graded Responses, Cambridge University Press, Cambridge 1962). Herein the effects of test compounds are expressed as pIC50 (the negative log value of the IC50-value) (see Table 2).

HCT116 cells [2] = test: Mitotic arrest assay on HCT116 cells (phospho-histone H3 Ser10); format: cell-based, human; details: lowest active dose; for minimal effective concentration: Homo sapiens, HCT-116, HCT116 cells, read-out: Mitotic arrest HCT116 LAD (converted)
Description: Phosphorylation of histone H3 is tightly correlated with chromosome condensation during both mitosis and meiosis. The assay is a cellular immunosorbent assay wherein the sole antibody is labelled with a detectable conjugate. The phospho-histone H3 (ser10) antibody detects endogenous levels of histone H3 only when phosphorylated at serine 10. […] In parallel with antibody detection, the nuclei of the cells are stained with Hoechst 33342 for cell-counting. Cells are detected and analysed using the InCell Analyzer 1000 from GE Healthcare. Since both the antibody-detection as well as the Hoechst-staining are in the nucleus, the dual area object intensity algorithm is used for analysing the wells.
All compounds tested were dissolved in DMSO and further dilutions were made in culture medium. Final DMSO concentrations never exceeded 0.1% (v/v).
HCT116 cells (supplier: ATCC) (human colon carcinoma cell line) were cultivated in Mc Coy's 5 A medium (supplier: Gibco) supplemented with 10% foetal calf serum (FCS), 2 mM L-glutamine and gentamycin at 37° C. in a humidified incubator with 5% CO2.
HCT116 cells were seeded at 20.000 cells per well in a 96 well plate (black/clear bottom, poly-D-lysine coated, supplier Greiner), cultured overnight to adhere to the bottom of the plate and treated with compound for 6 hours at 37° C. in a humidified incubator. After incubation, the medium was removed and cells were fixed using 100 μl/well formaldehyde (Accustain®, Formaline solution 10% neutral buffered, contains 4% formaldehyde w/v, supplier: Sigma) was added. After incubation for 15 minutes at room temperature, the formaldehyde was removed and cells were incubated with methanol (−20° C.) for 15 minutes at room temperature. After incubation, cells were washed once with phosphate-buffered saline (PBS —CaCl2, —MgCl2, suppier: Gibco)/0.05% Tween 20. The anti-phospho-histone H3 (Ser10) Alexa Fluor 488 antibody (supplier: Cell signalling) is used for detection of the cells inmitosis. The antibody was diluted 1/50 in 5% bovine serum albumins (BSA) and 50 μl/well was used for incubation overnight at room temperature in the dark.
A 1/2000 dilution of Hoechtst 33342 (10 mg/ml, supplier: Invitrogen) was made and 100 μl/well was added for at least 30 minutes before acquiring images. The absorbance at dual wavelengths of 360/480 nm was measured using the InCell Analyzer 1000 from GE Healthcare and the results were then analyzed.
For each experiment, controls (containing no drug) and a blank incubation (containing no cells or drugs) were run in parallel. Analysis was done in triplicate. Low cell count wells were invalidated. The blank value was subtracted from all control and sample values and divided by the standard deviation of the measurements. The compounds were considered active when the obtained value (sigma) was >5. Herein the effects of test compounds are expressed as the lowest dose giving a sigma value of >5 (LAD) (see table F-2).

IC50 (HCT116 cells [1]) [nM]	HCT116 antiproliferative activity pIC50 (HCT116 cells [1]; HCT116 cells)	SMILES	minimal effective concentration (HCT116 cells [2]) [µM]	Mitotic arrest HCT116 LAD (HCT116 cells [2]; HCT116 cells, the values are: pLAD (−log M lowest active dose))
31.6	–	C#Cc1cccc(CC(C)(C#N)c2ccc3cc(CC)c(=O)[nH]c3c2)c1 (racemic) [Compound 168]	0.0316	–
–	5.8	CCc1cc2ccc(C(C)(C#N)CC3COc4ccccc4O3)cc2[nH]c1=O (single isomer, unassigned) [Compound 48]	–	6.5
794	–	CCc1cc2ccc([C@@](C)(C#N)CCOc3ccccc3)cc2[nH]c1=O (single isomer, unassigned) [Compound 150]	0.316	–
1000	–	Cc1cc2ccc([C@@](C)(C#N)CCOc3ccccc3)cc2[nH]c1=O (single isomer, unassigned) [Compound 164]	0.1	–
> 10000	–	CCc1cc2ccc(C(C)(C#N)Cc3cccc(C(=O)O)c3)cc2[nH]c1=O (stereo not shown) [Compound 10]	10	–
1580	–	CCc1cc2ccc(C(C)(C#N)Cc3cccc(-c4nc(C)no4)c3)cc2[nH]c1=O (stereo not shown) [Compound 11]	0.316	–
31.6	–	CCc1cc2ccc(C(C)(C#N)Cc3cccc(C(=O)OC)c3)cc2[nH]c1=O (stereo not shown) [Compound 12]	0.1	–
7940	–	CCc1cc2ccc(C(C)(C#N)Cc3cccc(C(=O)NC)c3)cc2[nH]c1=O (stereo not shown) [Compound 13]	1	–
> 10000	–	CCc1cc2ccc(C(C)(C#N)Cc3cccc(NS(C)(=O)=O)c3)cc2[nH]c1=O (stereo not shown) [Compound 14]	10	–
1000	–	CCc1cc2ccc(C(C)(C#N)Cc3cccc(N)c3)cc2[nH]c1=O (stereo not shown) [Compound 15]	1	–
> 10000	–	CCc1cc2ccc(C(C)(C#N)Cc3cccc(NC(=O)N4CCOCC4)c3)cc2[nH]c1=O (stereo not shown) [Compound 16]	10	–
398	–	CCc1cc2ccc(C(C)(C#N)Cc3ccccc3Br)cc2[nH]c1=O (stereo not shown) [Compound 104]	0.316	–
251	–	CCc1cc2ccc(C(C)(C#N)Cc3ccccc3C)cc2[nH]c1=O (stereo not shown) [Compound 105]	0.1	–
398	–	CCc1cc2ccc(C(C)(C#N)Cc3ccccc3F)cc2[nH]c1=O (stereo not shown) [Compound 106]	0.1	–
200	–	CCc1cc2ccc(C(C)(C#N)Cc3cccc(C)c3)cc2[nH]c1=O (stereo not shown) [Compound 107]	0.316	–
6310	–	CCc1cc2ccc(C(C)(C#N)Cc3ccc(C(F)(F)F)cc3)cc2[nH]c1=O (stereo not shown) [Compound 108]	3.16	–
251	–	CCc1cc2ccc(C(C)(C#N)Cc3cccc(C(F)(F)F)c3)cc2[nH]c1=O (stereo not shown) [Compound 109]	0.316	–
158	–	CCc1cc2ccc(C(C)(C#N)Cc3cccc(OC(F)(F)F)c3)cc2[nH]c1=O (stereo not shown) [Compound 110]	0.316	–
5010	–	CCc1cc2ccc(C(C)(C#N)Cc3ccc(C#N)cc3)cc2[nH]c1=O (stereo not shown) [Compound 111]	3.16	–
316	–	CCc1cc2ccc(C(C)(C#N)Cc3cccc(F)c3)cc2[nH]c1=O (stereo not shown) [Compound 112]	0.316	–

IC50 (HCT116 cells [1]) [nM]	HCT116 antiproliferative activity pIC50 (HCT116 cells [1]; HCT116 cells)	SMILES	minimal effective concentration (HCT116 cells [2]) [µM]	Mitotic arrest HCT116 LAD (HCT116 cells [2]; HCT116 cells, the values are: pLAD (−log M lowest active dose))
398	–	CCc1cc2ccc(C(C)(C#N)Cc3cccc(OC)c3)cc2[nH]c1=O (stereo not shown) [Compound 113]	0.316	–
1580	–	CCc1cc2ccc(C(C)(C#N)Cc3ccc(OC(F)(F)F)cc3)cc2[nH]c1=O (stereo not shown) [Compound 114]	1	–
631	–	CCc1cc2ccc(C(C)(C#N)Cc3ccc(F)cc3)cc2[nH]c1=O (stereo not shown) [Compound 115]	0.316	–
631	–	CCc1cc2ccc(C(C)(C#N)Cc3c(F)c(F)c(F)c(F)c3F)cc2[nH]c1=O (stereo not shown) [Compound 116]	0.1	–
2510	–	CCc1cc2ccc(C(C)(C#N)Cc3ccc(C)cc3)cc2[nH]c1=O (stereo not shown) [Compound 117]	1	–
2000	–	CCc1cc2ccc(C(C)(C#N)Cc3ccc(Br)cc3)cc2[nH]c1=O (stereo not shown) [Compound 118]	1	–
2000	–	CCc1cc2ccc(C(C)(C#N)Cc3ccc(OC)cc3)cc2[nH]c1=O (stereo not shown) [Compound 119]	1	–
251	–	CCc1cc2ccc(C(C)(C#N)Cc3cccc(F)c3F)cc2[nH]c1=O (stereo not shown) [Compound 120]	0.1	–
158	–	CCc1cc2ccc(C(C)(C#N)Cc3cccc(Cl)c3Cl)cc2[nH]c1=O (stereo not shown) [Compound 121]	0.316	–
251	–	CCc1cc2ccc(C(C)(C#N)Cc3ccc4ccccc4c3)cc2[nH]c1=O (stereo not shown) [Compound 122]	0.316	–
3980	–	CCc1cc2ccc(C(C)(C#N)Cc3ccc4c(c3)nnn4C)cc2[nH]c1=O (stereo not shown) [Compound 123]	3.16	–
501	–	CCc1cc2ccc(C(C)(C#N)Cc3ccc4c(c3)OCCO4)cc2[nH]c1=O (stereo not shown) [Compound 124]	0.316	–
200	–	CCc1cc2ccc(C(C)(C#N)Cc3cc(C)cc(C)c3)cc2[nH]c1=O (stereo not shown) [Compound 125]	0.1	–
3160	–	CCc1cc2ccc(C(C)(C#N)CC#Cc3cccc(F)c3)cc2[nH]c1=O (stereo not shown) [Compound 184]	–	–
6310	–	Cc1cc2ccc([C@@](C)(C#N)[C@@H]3CCc4cc(C#N)ccc43)cc2[nH]c1=O [Compound 245]	–	–
631	–	CCc1cc2ccc([C@](C)(C#N)C[C@@H]3CCc4cc(C)ccc4O3)cc2[nH]c1=O [Compound 251]	–	–
126	–	CCc1cc2ccc([C@@](C)(C#N)C[C@@H]3CCc4cc(C)ccc4O3)cc2[nH]c1=O [Compound 252]	–	–
1580	–	CCc1cc2ccc(C(C#N)(CC)CCOc3ccc(C#N)cc3)cc2[nH]c1=O (stereo not shown) [Compound 271]	–	–
200	–	Cc1cc2ccc([C@@](C)(C#N)[C@H]3CCc4cc(C#N)ccc43)cc2[nH]c1=O [Compound 389]	–	–
631	–	CCc1cc2ccc(C(C#N)(CC)C3CCc4ccc(F)cc43)cc2[nH]c1=O (stereo not shown) [Compound 391]	–	–
